In patent publication US6995136B1, “Peptide fragments of murine epidermal growth factor as laminin receptor targets” (The Queen's University of Belfast, priority 1998, dated 2006):

Columns and labels:
[1] = molecular target: T1, 67 kDa laminin receptor (67-LR) (Homo sapiens, UniProt P08865); experiment: 125I-laminin displacement (competition binding) on T47-D or SK HEP-1 cells; settings: relative to mEGF(33-42); 0.1 nM 125I-laminin, overnight 4° C.
T1 construct: endogenous in cells; host or cells: T47-D or SK HEP-1 cells (whole-cell suspension)
Description: ^125I-laminin was prepared using ^125I-labelled sodium iodide (Amersham, UK) and immobilised chloramine-T (Iodobeads; Pierce, Ill.). Prior to use, the beads were washed with 500 μl phosphate buffer (pH 6.5) to remove excess reagent from the support. These were then allowed to air dry and individual beads added to a solution of carrier free Na^125I, diluted with iodination buffer (phosphate buffer pH 7.4). The beads were allowed to equilibrate for 5 min.
Laminin (10 μg in 10 μl) was then diluted into the iodination buffer and the system incubated at 20° C. for 15 min. The solution was then removed from the reaction vessel and excess Na^125I and unincorporated ^125I2 separated from the iodinated protein by gel filtration on a GF-5 exclusion column (Pierce, Ill.). Iodinated laminin fractions were recovered at a specific activity of approximately 1.2 mCi/mg protein (864 Ci/mmol).
Near confluent cultures of T47-D or SK HEP-1 cells were removed from monolayer with 0.02% EGTA and passed through a G-25 syringe needle to produce single cell suspensions. Aliquots of each cell type (10^6 cells/ml) were dispensed into separate Ependorf tubes (1 ml each) and pelleted. The cells were then resuspended in 1 ml ice-cold RPMI (SK HEP-1) or DMEM (T47-D) containing 0.1% BSA and either laminin or synthetic peptide at the concentrations indicated. Iodinated laminin was then added to each cell suspension to give a final ^125I-laminin concentration of 0.1 nM (approximately 50,000 cpm). These mixtures were incubated overnight at 4° C.
The tubes were then microfuged at 10,000 g and the supernatant removed. After washing the pellet with 500 μl CFS, the remaining radioactivity was determined using a gamma radiation counter. Non-specific binding was determined by incubating cells with a 1000-fold molar excess of unlabelled laminin. All estimations were carried out in triplicate.
IC50 (concentration of unlabelled peptide required to produce 50% inhibition of radioligand binding) and EC50 (effective concentration for 50% inhibition of cell attachment) values were calculated using the Grafit curve-fitting programme (Erithacus Software, London, UK).

tumour cells = settings: already known in the field; cited from earlier work
[2] = system: angiogenesis in the chick; experiment: Chick angiogenesis model; type: in vivo; settings: chick
C57-BL/6J mice = experiment: Murine model of proliferative retinopathy (retinopathy of prematurity, ROP); type: in vivo, mouse
Description: Litters of 7 day old C57-BL/6J mice, together with their nursing dams, are exposed to 80% oxygen in an incubator maintained at 23° C. and with a gas exchange of 1.5 L/min for 5 days according to the protocol described by Stitt et al. (1998). On postnatal day 12 (P12) the animals are returned to room air and sacrificed at various times posthyperoxia. Animals are treated with daily i.p. injections of either laminin agonists (10 μg per head per day) or vehicle control. Groups of room air controls are maintained in parallel with hyperoxia-exposed animals. Home Office project and personal licenses are held for this work. All animals are housed and maintained in accordance with the ARVO regulations for animal care in research.
Animals are sacrificed at pre-determined key stages in the vaso-obliteration (P7–P12), ischaemia (P12 onwards) and vaso-proliferative responses (P 12–21). At sacrifice, terminally anaesthetised animals have a single eye enucleated and the retina removed to be snap-frozen for later RNA-extraction (see below). The fellow eye is either perfused with fluorescein dextran or enucleated and fixed in 4% paraformaldehyde for histology, immunohistochemistry and in situ hybridisation.

[3] = system: angiogenesis in the chick; settings: already known in the field; cited from earlier work
[4] = system: Endothelial cells (SK HEP-1 and BRCE); experiment: Migration assay (colloidal gold track area); type: cell-based; settings: mammalian cell lines
Description: The method used was basically as described by Albrecht-Buehler (1977). Briefly, coverslips (22×22 mm) were treated in 5% detergent (7×; ICN Biomedicals) and washed in alcohol to remove grease. After drying, they were immersed in gelatin solution (Sigma, 300 Bloom; 0.5 g in 300 ml distilled H2O) for 10 min. The coverslips were then dried by placing in a 70° C. oven for 45 min.
Colloidal gold suspension was prepared by adding 11 ml distilled H2O and 6 ml Na2CO3 (36.5 mM) to 1.8 ml AuHCl4 (14.5 mM). The mixture was heated to 95° C. at which point 1.8 ml of freshly prepared 0.1% formaldehyde solution was added; the temperature was maintained at 95° C. A suspension of colloidal gold was formed which was brown to absorbed light and blue to transmitted light.
The gold suspension, was then added to petri dishes containing individual coverslips and the plates incubated at 37° C. for 45 min. After washing with CFS (3×4 ml) to remove unattached gold particles, the coverslips were transferred to 6-well cluster dishes and UV sterilised.
Endothelial cells (SK HEP-1 and BRCE) in culture media (0.3 ml) were seeded onto the coverslips at an approximate density of 5×10^3 cells per well. The cells were allowed to plate down for 2 h at 37° C. after which the treatments were added. Assay systems were maintained for a further 18 h after which the cells were fixed using 3% gluteraldehyde in cacodylate buffer (pH 7.2).
The assays were examined using a Leica DM1RB phase contrast microscope and Q500MC image analysis system incorporating a JVC TK-1280E colour camera (Leica, Milton Keynes, UK). The track images of at least 30 cells were videocaptured and the area (representing migration response) determined for each. Statistical analysis of these areas was then carried out using Macintosh Instat software to perform both Kruskal-Wallis analysis of variance and Mann-Whitney U-tests in order to compare the treatment groups with controls.

[5] = FIG. 1b versus 1a, 10 μg per head per day i.p.

For “CDPGYIGSR [Lam.β-1(925-933), CDPGYIGSR-NH2, synthetic peptide of amino acids 925–933 of the laminin β-1 chain, 67LR agonist, reference compound]”, the “receptor affinity, 125I-laminin displacement (IC50), in words” value [1] is given as “equipotent”, the “tumour establishment in mice” value (tumour cells) is given as “inhibit tumour establishment in mice” and the “laminin agonist/antagonist character in chick” value [2] is given as “partial laminin antagonist”. The “re-canalisation of areas of vaso-obliteration” value (C57-BL/6J mice; [5]) was “promotes re-canalisation of areas of vaso-obliteration”, the “uncontrolled angiogenic response of ROP” value (C57-BL/6J mice; [5]) was “prevents the uncontrolled angiogenic response of ROP” and the “development of ROP” value (C57-BL/6J mice; neonates, daily intraperitoneal injections of 10 μg) was “development of ROP can be prevented”. For the same sequence, the “angiogenesis in the chick” value [3] was “inhibits angiogenesis in the chick”, the “67LR agonist/antagonist character in mammalian cell lines” value [4] was “pure agonist” and the “67LR agonist/antagonist character in mammalian cell lines” value ([4]; listed as laminin β-1925-933) was “pure 67LR agonist”.
